Experimental findings from ChEMBL document CHEMBL2385021, “Discovery of MK-3168: A PET Tracer for Imaging Brain Fatty Acid Amide Hydrolase” (ACS Med Chem Lett, 2013) are described below.

Some results are limits rather than exact numbers.

The nature of data set [1]: Lipophilicity, log D of the compound at pH 7.3 by HPLC analysis. The format is physicochemical. To be noted: buffer.
Data set [2] can be described thus: Inhibition of rhesus monkey FAAH expressed in CHO cell lysates assessed as arachidonyl-7-amino-4-methylcoumarin amide hydrolysis to 7-amino 4-methyl coumarin preincubated for 15 mins prior to substrate addition measured after 1 to 3 hrs by fluorescence assay. The format is cell-free, Macaca mulatta.
Data set [3] concerns the target T1, Fatty-acid amide hydrolase 1 (Homo sapiens, UniProt O00519).
T1 sequence (O00519 whole entry): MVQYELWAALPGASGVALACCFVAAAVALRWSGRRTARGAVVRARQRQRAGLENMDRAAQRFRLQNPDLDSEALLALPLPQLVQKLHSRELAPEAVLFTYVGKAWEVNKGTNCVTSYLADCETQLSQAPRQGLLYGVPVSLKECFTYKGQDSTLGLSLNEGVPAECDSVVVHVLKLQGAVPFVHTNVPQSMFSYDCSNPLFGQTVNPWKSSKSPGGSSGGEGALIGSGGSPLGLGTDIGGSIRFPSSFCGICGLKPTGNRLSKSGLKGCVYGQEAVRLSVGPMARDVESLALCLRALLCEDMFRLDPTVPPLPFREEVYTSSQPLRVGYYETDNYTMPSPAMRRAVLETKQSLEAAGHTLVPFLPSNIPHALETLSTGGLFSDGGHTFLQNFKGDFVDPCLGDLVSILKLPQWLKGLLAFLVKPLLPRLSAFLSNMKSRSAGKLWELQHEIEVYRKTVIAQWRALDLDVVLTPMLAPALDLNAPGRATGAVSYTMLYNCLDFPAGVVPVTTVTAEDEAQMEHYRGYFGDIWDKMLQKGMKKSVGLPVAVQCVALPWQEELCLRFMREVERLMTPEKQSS
The data set is described as follows: Inhibition of human FAAH expressed in CHO cell lysates assessed as arachidonyl-7-amino-4-methylcoumarin amide hydrolysis to 7-amino 4-methyl coumarin preincubated for 15 mins prior to substrate addition measured after 1 to 3 hrs by fluorescence assay. The format is cell-free.

In data set [4] the target is T2, Fatty-acid amide hydrolase 1 (Rattus norvegicus, UniProt P97612).
T2 sequence (P97612 whole entry): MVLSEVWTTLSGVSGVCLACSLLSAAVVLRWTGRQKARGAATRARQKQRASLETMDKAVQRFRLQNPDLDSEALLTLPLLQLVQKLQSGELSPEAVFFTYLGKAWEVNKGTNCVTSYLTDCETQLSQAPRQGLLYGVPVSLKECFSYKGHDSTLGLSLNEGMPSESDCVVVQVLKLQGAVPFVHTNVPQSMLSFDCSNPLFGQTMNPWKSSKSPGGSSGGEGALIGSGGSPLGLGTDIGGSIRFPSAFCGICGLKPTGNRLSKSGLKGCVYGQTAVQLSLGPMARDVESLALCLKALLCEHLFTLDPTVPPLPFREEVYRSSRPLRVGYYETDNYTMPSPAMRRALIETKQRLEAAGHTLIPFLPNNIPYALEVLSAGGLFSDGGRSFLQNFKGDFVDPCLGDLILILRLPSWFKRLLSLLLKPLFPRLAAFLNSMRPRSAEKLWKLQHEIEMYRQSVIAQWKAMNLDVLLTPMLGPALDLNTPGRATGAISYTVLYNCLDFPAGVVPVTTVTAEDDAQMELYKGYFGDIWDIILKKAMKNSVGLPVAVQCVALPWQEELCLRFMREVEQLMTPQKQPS
The experiment in a line: Inhibition of rat FAAH expressed in CHO cell lysates assessed as arachidonyl-7-amino-4-methylcoumarin amide hydrolysis to 7-amino 4-methyl coumarin preincubated for 15 mins prior to substrate addition measured after 1 to 3 hrs by fluorescence assay. It is filed as cell-free.

The target in data set [5] is T1, Fatty-acid amide hydrolase 1. The experiment in a line: (§1) Binding affinity to FAAH in human cortical homogenates.
Data set [6] has as its target T2, Fatty-acid amide hydrolase 1. The experiment in a line: Binding affinity to FAAH in rat cortical homogenates.
A short description of data set [7]: (§2) Binding affinity to FAAH in rhesus monkey cortical homogenates. The format is tissue-based, Macaca mulatta.
Data set [8] can be described thus: Drug uptake in rhesus monkey frontal cortex at 5 mCi, iv after 45 mins by positron emission tomographic analysis. The format is ADME, organism-based, Macaca mulatta. As to conditions: in vivo, 0.75 h; call rule not given here.
For a further data set, the system named is Striatum. The data set is described as follows: Drug uptake in rhesus monkey striatum at 5 mCi, iv after 45 mins by positron emission tomographic analysis. It is filed as ADME, organism-based, Macaca mulatta. As to conditions: in vivo, 0.75 h.
Data set [9] is described as follows: Apparent permeability of the compound. It is filed as ADME. As to conditions: not told.
The next data set concerns Hippocampus. The data set is described as follows: Drug uptake in rhesus monkey hippocampal regions at 5 mCi, iv after 45 mins by positron emission tomographic analysis. It is filed as ADME, organism-based, Macaca mulatta. As to conditions: in vivo, 0.75 h.
For data set [10], the system named is Brain. The data set is described as follows: Drug uptake in iv dosed rhesus monkey brain after 45 mins measured per mCi/kg by positron emission tomographic analysis. It is filed as ADME, organism-based, Macaca mulatta. To be noted: in vivo, 0.75 h.
Data set [11] can be described thus: Activity at rat P-glycoprotein. The format is ADME.
The target in the next data set is Phosphodiesterase 4 (Homo sapiens, UniProt P27815+Q08499+Q07343+Q08493). The experiment in a line: Inhibition of phosphodiesterase PDE4 (unknown origin). The format is protein assay.
The species named for data set [12] is Macaca mulatta. The data set is described as follows: Inhibition of FAAH in rhesus monkey whole blood. It is filed as tissue-based.
Data set [13] in a line: Activity at human P-glycoprotein. The format is ADME.
Another data set addresses Cannabinoid receptor 2 (Homo sapiens, UniProt P34972). The experiment in a line: Inhibition of CB2 receptor (unknown origin).
The target in data set [14] is T3, Fatty-acid amide hydrolase 1 (Homo sapiens) (UniProt O00519).
T3 sequence (whole entry): T1 sequence (O00519 whole entry)
Described as §1. To be noted: tested as the 3H-labelled form.

For data set [15], the species on record is Macaca mulatta. Described as §2. The format is tissue-based. As to conditions: tested as the 3H-labelled form.
In another data set the target is Cytochrome P450 3A4 (Homo sapiens, UniProt P08684). The data set is described as follows: Inhibition of CYP3A4 (unknown origin). It is filed as ADME.
Data set [16] in a line: Chemical stability of the compound. The format is physicochemical.
Data set [17] concerns the target Voltage-gated inwardly rectifying potassium channel KCNH2 (Homo sapiens, UniProt Q12809). The experiment in a line: Inhibition of human ERG.
Another data set addresses Acetylcholinesterase (Homo sapiens, UniProt P22303). The data set is described as follows: Inhibition of acetyl cholinesterase (unknown origin).
In data set [18] the target is T3, Fatty-acid amide hydrolase 1 (Homo sapiens). The data set is described as follows: Inhibition of FAAH in human whole blood.
Data set [19] has as its system Brain. The data set is described as follows: Drug uptake in rat brain at 2 mg/kg, po after 2 hrs. As to conditions: in vivo. Also noted: dose 2 mg/kg, route oral. The format is ADME, organism-based.
Data set [20] can be described thus: Ratio of drug level in brain to plasma in rat at 2 mg/kg, po after 2 hrs. It is filed as ADME, organism-based. Also noted: dose 2 mg/kg, route oral. To be noted: read-out: BPR.
A further data set addresses Cannabinoid receptor 1 (Homo sapiens, UniProt P21554). The experiment in a line: Inhibition of CB1 receptor (unknown origin).
A short description of data set [21]: Solubility of the compound in saline buffer at pH 3 to 8 in presence of 10% ethanol. The format is physicochemical.
Data set [22] is described as follows: Inhibition of L-type calcium channel diltiazem binding site (unknown origin). Also noted: species or system Homo sapiens.

Cytochrome P450 3A4, sequence (P08684 whole entry): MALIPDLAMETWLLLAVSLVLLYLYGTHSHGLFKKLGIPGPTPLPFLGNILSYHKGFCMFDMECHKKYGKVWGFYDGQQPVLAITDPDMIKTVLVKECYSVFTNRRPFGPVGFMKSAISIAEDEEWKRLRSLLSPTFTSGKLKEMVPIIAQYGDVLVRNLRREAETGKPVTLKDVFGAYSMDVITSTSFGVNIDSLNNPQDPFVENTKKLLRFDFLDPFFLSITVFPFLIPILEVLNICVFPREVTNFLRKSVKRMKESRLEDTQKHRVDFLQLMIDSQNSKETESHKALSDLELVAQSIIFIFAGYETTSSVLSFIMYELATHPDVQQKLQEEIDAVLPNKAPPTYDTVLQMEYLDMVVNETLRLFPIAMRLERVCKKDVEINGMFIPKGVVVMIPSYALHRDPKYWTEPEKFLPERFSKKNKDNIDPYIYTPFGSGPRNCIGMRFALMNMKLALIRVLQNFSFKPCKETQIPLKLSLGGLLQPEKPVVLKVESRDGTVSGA
Cannabinoid receptor 2, sequence (P34972 whole entry): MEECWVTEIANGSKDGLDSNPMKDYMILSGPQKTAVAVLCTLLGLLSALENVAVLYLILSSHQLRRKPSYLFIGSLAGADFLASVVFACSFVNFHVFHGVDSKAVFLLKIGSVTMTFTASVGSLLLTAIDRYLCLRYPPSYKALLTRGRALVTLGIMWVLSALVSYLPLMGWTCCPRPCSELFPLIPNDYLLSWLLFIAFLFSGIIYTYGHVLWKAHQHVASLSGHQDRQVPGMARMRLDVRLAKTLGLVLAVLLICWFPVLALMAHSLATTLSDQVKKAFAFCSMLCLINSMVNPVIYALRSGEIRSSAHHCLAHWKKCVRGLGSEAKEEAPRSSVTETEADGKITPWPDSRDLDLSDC
Acetylcholinesterase, sequence (P22303 whole entry): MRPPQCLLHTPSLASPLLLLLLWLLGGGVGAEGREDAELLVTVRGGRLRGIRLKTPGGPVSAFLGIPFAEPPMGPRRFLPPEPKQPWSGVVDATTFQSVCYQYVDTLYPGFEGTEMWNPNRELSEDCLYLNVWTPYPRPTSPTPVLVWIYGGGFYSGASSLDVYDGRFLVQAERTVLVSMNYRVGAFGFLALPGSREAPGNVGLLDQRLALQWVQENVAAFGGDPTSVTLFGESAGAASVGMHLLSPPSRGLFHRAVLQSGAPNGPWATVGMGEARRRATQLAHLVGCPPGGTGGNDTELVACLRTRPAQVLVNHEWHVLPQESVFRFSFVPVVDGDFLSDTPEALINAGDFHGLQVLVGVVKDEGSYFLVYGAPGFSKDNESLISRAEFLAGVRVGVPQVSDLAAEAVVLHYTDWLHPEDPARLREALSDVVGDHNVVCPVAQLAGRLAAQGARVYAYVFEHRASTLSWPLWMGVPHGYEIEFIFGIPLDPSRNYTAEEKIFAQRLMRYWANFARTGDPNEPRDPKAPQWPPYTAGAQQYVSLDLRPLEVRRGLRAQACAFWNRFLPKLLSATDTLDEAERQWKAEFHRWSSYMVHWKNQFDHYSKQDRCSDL
Cannabinoid receptor 1, sequence (P21554 whole entry): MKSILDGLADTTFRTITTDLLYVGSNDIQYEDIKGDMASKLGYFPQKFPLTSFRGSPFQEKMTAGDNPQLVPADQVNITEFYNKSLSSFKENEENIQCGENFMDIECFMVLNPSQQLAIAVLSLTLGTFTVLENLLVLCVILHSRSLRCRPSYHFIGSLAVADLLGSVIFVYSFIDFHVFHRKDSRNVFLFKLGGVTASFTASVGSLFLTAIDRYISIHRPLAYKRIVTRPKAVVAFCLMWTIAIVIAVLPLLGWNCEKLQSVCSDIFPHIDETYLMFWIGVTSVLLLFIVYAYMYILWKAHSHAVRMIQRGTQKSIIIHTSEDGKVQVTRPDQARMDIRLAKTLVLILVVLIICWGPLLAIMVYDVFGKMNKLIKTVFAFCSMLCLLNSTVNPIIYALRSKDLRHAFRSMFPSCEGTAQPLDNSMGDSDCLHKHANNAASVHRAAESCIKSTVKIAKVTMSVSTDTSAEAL
Voltage-gated inwardly rectifying potassium channel KCNH2, sequence (Q12809 whole entry): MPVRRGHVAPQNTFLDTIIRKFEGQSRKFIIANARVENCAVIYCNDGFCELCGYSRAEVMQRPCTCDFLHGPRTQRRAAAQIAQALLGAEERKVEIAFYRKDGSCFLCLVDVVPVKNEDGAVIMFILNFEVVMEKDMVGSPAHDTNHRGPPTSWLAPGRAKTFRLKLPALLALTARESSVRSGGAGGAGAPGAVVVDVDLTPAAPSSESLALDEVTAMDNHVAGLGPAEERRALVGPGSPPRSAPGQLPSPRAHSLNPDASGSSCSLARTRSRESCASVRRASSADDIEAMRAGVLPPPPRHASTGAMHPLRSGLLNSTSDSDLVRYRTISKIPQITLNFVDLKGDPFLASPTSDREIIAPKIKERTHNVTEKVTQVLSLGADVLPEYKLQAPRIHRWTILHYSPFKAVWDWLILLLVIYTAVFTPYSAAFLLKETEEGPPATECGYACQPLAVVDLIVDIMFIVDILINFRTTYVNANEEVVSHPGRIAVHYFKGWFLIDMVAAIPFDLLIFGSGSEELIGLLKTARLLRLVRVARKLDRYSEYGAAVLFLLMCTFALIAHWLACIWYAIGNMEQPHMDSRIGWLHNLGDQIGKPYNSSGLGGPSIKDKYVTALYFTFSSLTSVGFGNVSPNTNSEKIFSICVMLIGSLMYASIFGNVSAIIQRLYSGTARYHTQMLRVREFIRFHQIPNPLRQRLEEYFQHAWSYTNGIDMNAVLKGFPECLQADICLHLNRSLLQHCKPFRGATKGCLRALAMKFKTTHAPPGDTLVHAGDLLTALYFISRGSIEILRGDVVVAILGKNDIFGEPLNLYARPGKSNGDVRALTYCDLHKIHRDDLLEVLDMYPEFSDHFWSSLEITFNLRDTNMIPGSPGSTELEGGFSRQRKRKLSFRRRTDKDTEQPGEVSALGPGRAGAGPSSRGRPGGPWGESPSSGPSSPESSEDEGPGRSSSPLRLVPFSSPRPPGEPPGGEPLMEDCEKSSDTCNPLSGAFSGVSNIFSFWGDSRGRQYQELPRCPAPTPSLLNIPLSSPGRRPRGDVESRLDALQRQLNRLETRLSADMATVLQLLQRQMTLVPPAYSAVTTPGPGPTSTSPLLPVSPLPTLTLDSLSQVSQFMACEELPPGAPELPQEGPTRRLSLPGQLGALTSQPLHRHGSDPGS

`NC(=O)[C@H]1C[C@@H]1c1ccc(-c2nn(C3CC3)cc2Sc2ccc(Cl)cc2)cc1` gave a logD in data set [1] of 3.8. Besides, the IC50 in [2] was 33 nM; in data set [3] it was 5 nM; in data set [4] it was 4.2 nM.

In data set [1], `CN(C)C(=O)[C@H]1C[C@@H]1c1ccc(-c2ncn(C)c2Sc2ccc(Cl)cc2)cc1` displayed a logD of 4.2. Besides, the IC50 was determined as 1.4 nM in data set [2] and 0.6 nM in [4].

For the compound `Cn1cnc(-c2ccc([C@H]3C[C@@H]3C(=O)NCCF)cc2)c1Sc1ccc(Cl)cc1`, in data set [1], the logD worked out at 4. Further, the IC50 in [2] worked out at 3.1 nM; in data set [3] it was 1 nM; in data set [4] it was 1.4 nM.

As to `CN(CCF)C(=O)[C@H]1C[C@@H]1c1ccc(-c2ncn(C)c2Sc2ccc(Cl)cn2)cc1`, the logD in [1] is 3.4. Moreover, the IC50 worked out at 27 nM in data set [2] and 3 nM in data set [4].

Turning to `[3H]C([3H])([3H])n1cnc(-c2ccc([C@H]3C[C@@H]3C(=O)N(C)C)cc2)c1Sc1ccc(Cl)cn1`, the Kd in data set [5] is 0.8 nM; in data set [6], 0.6 nM; in [7] it was 1.4 nM.

As to `CN(C)C(=O)[C@H]1C[C@@H]1c1ccc(-c2ncn([11CH3])c2Sc2ccc(Cl)cn2)cc1` [MK-3168 C-11], the Drug uptake entry (in data set [8]; in the data set on Striatum; in the data set with Hippocampus) was “Active” each time. Also, the Papp in data set [9] came to 27 ×10⁻⁶ cm/s. In addition, in the data set on Brain [10], the SUV is over 1 nCi/cc.

For the compound `CN(C)C(=O)[C@H]1C[C@@H]1c1ccc(-c2ncn(CCF)c2Sc2ccc(Cl)cn2)cc1`, in [4], the IC50 turned out to be 4.8 nM.

Compound `[11CH3]n1cc(Sc2ccc(Cl)cc2)c(-c2ccc3ccc(C(N)=O)nc3c2)n1` came in with a log distribution coefficient (logD) in data set [1] of 4.2. Also, the results for the IC50 in [2], in data set [3] and in data set [4] were 0.8 nM, 0.5 nM and 0.4 nM, respectively.

`Cn1cnc(-c2ccc([C@H]3C[C@@H]3C(N)=O)cc2)c1Sc1ccc(Cl)cc1` yielded a logD in [1] of 3.6. Also, the results for the IC50 in [3] and in data set [4] were 0.8 nM and 1.7 nM, respectively.

As to `CNC(=O)[C@H]1C[C@@H]1c1ccc(-c2ncn(C)c2Sc2ccc(Cl)cc2)cc1`, in data set [1], the logD amounted to 3.8. The values for the IC50 in data set [3] and in data set [4] were 0.5 nM and 1.4 nM, respectively.

For the compound `Cn1cnc(-c2ccc([C@H]3C[C@@H]3C(N)=O)cc2)c1Sc1ccc(Cl)cn1`, the logD in data set [1] was found to be 2. For the same compound, in data set [4], the IC50 is 12 nM.

Regarding `Cc1nc(-c2ccc([C@H]3C[C@@H]3C(=O)N(C)C)cc2)c(Sc2ccc(Cl)cn2)n1C`, the results for the IC50 in data set [3] and in data set [4] were 13.6 nM and 34 nM, respectively.

On to `CN(C)C(=O)[C@H]1C[C@@H]1c1ccc(-c2c(Sc3ccc(Cl)cn3)ncn2C)cc1`, for which the IC50 in [3] turned out to be 839 nM; in data set [4], 1390 nM.

Consider `CN(C)C(=O)[C@H]1C[C@@H]1c1ccc(-c2ncn(C)c2Sc2ccc(Cl)cn2)cc1` [MK-3168], for which the Activity entry in data set [11] and in data set [13] was “Not Active” in each case. Also, the IC50 was 9.75 µM at Phosphodiesterase 4; 150 µM on Cannabinoid receptor 2; over 50 µM on Cytochrome P450 3A4; 37 µM in data set [17]; 1630 nM against Acetylcholinesterase; 5.5 nM in data set [2]. Further, the IC50 against Cannabinoid receptor 1 is 30 µM; in [22], 16 µM; in data set [4] it was 1.7 nM. The IC90 in the data set filed under Macaca mulatta [12] worked out at 29 nM; in data set [18] it was 5.5 nM. The figures for the Bmax (in [14]; in the data set filed under Macaca mulatta [15]) were 15 nM and 21 nM, respectively. For the same compound, the Stability in data set [16] amounted to 24 h. The same compound registered a logD in data set [1] of 3.3. In addition, the Drug uptake entry in the data set with Brain [19] is reported as “Active”. In data set [20], the Kp at 2 h is 7. Also, the solubility result in data set [21] was “soluble”.

As for `CN(CCF)C(=O)[C@H]1C[C@@H]1c1ccc(-c2ncn(C)c2Sc2ccc(Cl)cc2)cc1`, the logD in data set [1] came out at 4.3. Besides, the IC50 was found to be 8.8 nM in [2], 1.1 nM in data set [3] and 1.3 nM in data set [4].

In data set [1], `Cn1cnc(-c2ccc([C@H]3C[C@@H]3C(=O)NCCF)cc2)c1Sc1ccc(Cl)cn1` registered a logD of 3. Also, the IC50 in data set [2] worked out at 7 nM; in data set [4], 4.2 nM.

As to `CN(C)C(=O)[C@H]1C[C@@H]1c1ccc(-c2nc(C3CC3)n(C)c2Sc2ccc(Cl)cn2)cc1`, the IC50 is 48 nM in data set [3] and 106 nM in data set [4].

`CNC(=O)[C@H]1C[C@@H]1c1ccc(-c2ncn(C)c2Sc2ccc(Cl)cn2)cc1` returned a logD in data set [1] of 2.9. In data set [4], the concentration for half-maximal inhibition (IC50) came to 6 nM.

Regarding `CN(C)C(=O)[C@H]1C[C@@H]1c1ccc(-c2nc[nH]c2Sc2ccc(Cl)cn2)cc1`, the IC50 in data set [4] was 145 nM.

In general, logD refers to lipophilicity at a set pH, counting ionised and neutral species. As usually defined, the IC50 is the concentration that inhibits the measured activity by half. As a reminder, the Kd is a measure of binding affinity in units of concentration. A word on the Papp: it is a coefficient for how fast a substance crosses the barrier. In general, IC90 refers to the point of the concentration-response curve where the effect stands at 90%.
